The subject of series [1] is BS-C-1. Nature of the series: Chemotherapeutic activity. Conditions: after 7 days, ± one SD.
For series [2], the system named is Vero. Put plainly: Cytotoxicity assay. The class given is cell-based, African green monkey. Particulars: trypan blue dye exclusion after 7 days, ± one SD.
Series [3] has as its system 143. Put plainly: Chemotherapeutic activity. Conditions: after 7 days, ± one SD.
Series [4] relates to Vero. Put plainly: Chemotherapeutic activity. Conditions: after 7 days, ± one SD.
The test system of series [5] is reovirus, vaccinia, HSV-1, VZV. The format is cell-based.
In series [6] the test system is 143. Nature of the series: Cytotoxicity assay. The format is cell-based, human. Conditions: trypan blue dye exclusion after 7 days, ± one SD.
The next series has as its system VZV. The format is cell-based, Varicella Zoster virus, strain Ellen. Conditions: VZV in BS-C-1 cells; ± one SD.
The next series deals with Vaccinia WR. The format is cell-based, Vaccinia virus, strain WR.
In series [7] the test system is HSV-1. Put plainly: Plaque reduction assay. The class given is cell-based, Herpes simplex virus 1, strain GHSV-UL46. Particulars: HSV-1 in Vero cells; ± one SD. On the technique in general: Plaque reduction counts the foci of infection that form in a cell layer.
The next series has as its system Reovirus ST3. Put plainly: Plaque reduction assay. The class given is cell-based, reovirus serotype 3 (ST3) strain Dearing. Conditions: Reovirus ST3 in L929 cells, ± one SD.
Series [8] has as its system L929. Nature of the series: Chemotherapeutic activity. Particulars: after 7 days, ± one SD.
Series [9] relates to L929. Nature of the series: Cytotoxicity assay. The format is cell-based, mouse. Conditions: trypan blue dye exclusion after 7 days, ± one SD.
The subject of series [10] is BS-C-1. Put plainly: Cytotoxicity assay. The class given is cell-based, African green monkey. Conditions: trypan blue dye exclusion after 7 days, ± one SD.
For series [11], the system named is L929, 143, Vero, BS-C-1 cell lines. Put plainly: Cell inhibition as a function of drug concentration. Conditions: Fig. 1; cell line not specified.
Series [12] concerns HSV-1. Conditions: cited from earlier work.
The subject of a further series is vaccinia. Conditions: cited from earlier work.
A further series concerns ssRNA viruses. Conditions: in words; cited from earlier work.

Structures can show the parent of a compound that is named as a salt. A value given as a limit tells only on which side of the number the result lay.

For the molecule `[Cl][Pt-2]([Cl])([Cl])[Cl].[K+].[K+]` [Compound K2PtCl4, potassium tetrachloroplatinate(II)], the “GI50 (50% reduction in cell growth)” value in the series on BS-C-1 [1] came to 175 ± 20.0 µg/mL; in the series on 143 [3] it was 175 ± 12.0 µg/mL; with Vero [4] it was 200 ± 16.0 µg/mL; in the series with L929 [8], 200 ± 20.0 µg/mL. In addition, the “MCC, minimum cytotoxicity concentration that causes a reduction in cell viability >10%” value was 100 ± 9.0 µg/mL in the series on Vero [2], 75 ± 6.0 µg/mL in the series on 143 [6], 100 ± 9.0 µg/mL in the series with L929 [9] and 75 ± 6.0 µg/mL in the series with BS-C-1 [10]. The “inhibition of the tested viruses” value in series [5] was “little inhibition”. The “MIC, minimum inhibitory concentration required to reduce virus plaque number by 50%” value was >75 µg/mL with VZV, >75 µg/mL against Vaccinia WR, >100 µg/mL with HSV-1 [7] and >100 µg/mL with Reovirus ST3.

`N.N.[Cl][Pt][Cl]` [Cisplatin]: the “GI50 (50% reduction in cell growth)” value in the series with BS-C-1 [1] worked out at 50 ± 3.0 µg/mL; in the series on 143 [3] it was 50 ± 4.0 µg/mL; in the series with Vero [4], 50 ± 4.0 µg/mL; in the series on L929 [8], 75 ± 6.0 µg/mL. The “MIC, minimum inhibitory concentration required to reduce virus plaque number by 50%” value in the series with VZV, in the series on Vaccinia WR, against HSV-1 [7] and in the series with Reovirus ST3 was >25 µg/mL throughout. In addition, the GI50 result in series [11] was “about 50 μg/mL”.

In the case of `Nc1nc2c(ncn2COCCO)c(=O)[nH]1` [Acyclovir], the “MCC, minimum cytotoxicity concentration that causes a reduction in cell viability >10%” value in the series with Vero [2] worked out at 400 ± 42.0 µg/mL; with 143 [6], 425 ± 32.0 µg/mL; with L929 [9], 500 ± 42.0 µg/mL; in the series on BS-C-1 [10], 440 ± 39.0 µg/mL. The “MIC, minimum inhibitory concentration required to reduce virus plaque number by 50%” value is >200 µg/mL in the series with Vaccinia WR, “about 0.08 μg/mL” in the series on HSV-1 [7], >250 µg/mL in the series with Reovirus ST3 and > 250 µg/mL in the series with Reovirus ST3 (listed as acyclovir).

With `CCN(CC)CCOc1ccc2c(c1)C(=O)c1cc(OCCN(CC)CC)ccc1-2` [Tilorone hydrochloride, 2,7-bis[2-(9-diethylamino)ethoxy]-9H-fluorene-9-one], in the series with HSV-1 [12], the “concentration shown to inhibit HSV-1” value is 10 µg/mL. Further, in the series with vaccinia, the “concentration shown to inhibit vaccinia” value was 10 µg/mL. In addition, the “antiviral activity against ssRNA viruses” value with ssRNA viruses was “no antiviral activity”.

The record behind these values is publication PMC7088078 (Journal of Inorganic and Organometallic Polymers and …, 2008).
